Experimental data published in patent publication EP0077961A2, “Substituted 2-nitro-5-(4-trifluoromethyl-phenoxy) toluols, process for their preparation and their use as herbicides and plant growth regulators” (BAYER AG, priority 1981, dated 1983).

Test system: Baumwollpflanzen
Test: Defoliation and desiccation of the leaves of cotton (Beispiel A)
Assay type: in vivo, Baumwolle
Settings: greenhouse; cotton plants sprayed dripping wet at full unfolding of the 5th leaf; rated after 1 week against control plants; concentration not given
From the text: Entlaubung und Austrocknung der Blätter bei Baumwolle
Lösungsmittel: 30 Gewichtsteile Dimethylformamid Emulgator: 1 Gewichtsteil Polyoxyethylen-SorbitanMonolaurat
Zur Herstellung einer zweckmäßigen Wirkstoffzubereitung vermischt man 1 Gewichtsteil Wirkstoff mit den angegebenen Mengen Lösungsmittel und Emulgator und füllt mit Wasser auf die gewünschte Konzentration auf.
Baumwollpflanzen werden im Gewächshaus bis zur vollen Entfaltung des 5. Folgeblattes angezogen. In diesem Stadium werden die Pflanzen tropfnaß mit den Wirkstoffzubereitungen besprüht. Nach 1 Woche werden der Blattfall und das Austrocknen der Blätter im Vergleich zu den Kontrollpflanzen bonitiert. Es bedeuten: • 0 kein Austrocknen der Blätter, kein Blattfall • + leichtes Austrocknen der Blätter, geringer Blattfall • ++ starkes Austrocknen der Blätter, starker Blattfall • sehr starkes Austrocknen der Blätter, sehr starker Blattfall

CC(=O)OCc1cc(Oc2ccc(C(F)(F)F)cc2Cl)ccc1[N+](=O)[O-] [Beispiel 1, Essigsäure-(2-nitro-5-(2-chlor-4-trifluormethyl-phenoxy)-benzyl)-ester]
Blattfall und Austrocknen der Blätter: starke Wirksamkeit
